Assays:
[1] = test system: sensitization induced by amphetamine; assay: Behavioral sensitization protocol (amphetamine), locomotor activity in open-field; assay type: in vivo, mice; details: repeated sessions, amphetamine 2 mg/kg
Method: (§1) The principle of the behavioral sensitization test is based on the measurement of the locomotor activity. The latter is measured in the open-field test.
(§2) The animals used are 9-week old C57/BL6J male mice at the beginning of the experiment.
(§3) The open-fields used to measure the activity are 4 square chambers made of transparent plexiglas. Each open-field is arranged in a setting equipped with photoelectric cells which make it possible to record the movements of the animal.
Groups receive beforehand an administration of one of the products or the combination of both.
During the 1st session, the animals receive NaCl at the 1st and 2nd injection. The experiment is performed over several sessions, 2 to 10 days apart.
The experiments were performed on 5 groups of animals which received the following treatments at each session.

C57/BL6J male mice = assay: Motor and exploratory activity test in open-field (effects of the products on the locomotor activity); assay type: in vivo; details: ifenprodil alone, doses of less than 10 mg/kg
Method: as §1
Motor and Exploratory Activity Test in Open-Field
as §2, §3
The products used have known psychotropic properties. […] Since the principle of the study is based on the measurement of the locomotor activity, it is preferable to have a preliminary evaluation of these effects under the experimental conditions used.
All the products are dissolved in physiological saline (0.9% NaCl) so that the volume for injection is 10 ml/kg of body weight.
IFENPRODIL was tested at the following doses: 1 mg/kg; 3 mg/kg and 10 mg/kg.
The experiments were also performed in order to evaluate the effect of the combination of the products:

[2] = test system: stimulant effects of alcohol; details: in vivo; cited from earlier work
[3] = in vivo; cited from earlier work
alcohol withdrawal = details: in vivo; cited from earlier work
[4] = test system: hyperactivity induced by MK801; assay: Model of locomotor hyperactivity induced by MK801; assay type: in vivo; details: clozapine 1 mg/kg
Method: Given the pharmacological profile of the molecules chosen toward the noradrenergic and serotoninergic receptors, an antipsychotic activity was sought. The substances were tested in the model of locomotor hyperactivity induced by MK801. […] In this model and under our experimental conditions, clozapine (1 mg/kg) reduces by 56% the hyperactivity induced by MK 801.
Effect of the combination 1 mg/kg ifenprodil+1 mg/kg cyproheptadine on the locomotor activity induced by MK801 (cm covered, mean +SEM).

Row | SMILES | effect on the development (and expression) of behavioral sensitization to amphetamine [1] | effect on locomotion (C57/BL6J male mice) | effect on the expression of sensitization (alcohol) [2] | effect on the stimulant effects of alcohol [2] | anxiolytic effects [3] | effect on the physical signs induced by alcohol withdrawal (alcohol withdrawal) | reduction of the hyperactivity induced by MK 801 [4]
1 | CC(C(O)c1ccc(O)cc1)N1CCC(Cc2ccccc2)CC1 (stereo not shown) [Ifenprodil] | limited effects | does not have a significant effect | does not block | reduces | anxiolytic effects | reduces | 
2 | CN1CCN(C2=Nc3cc(Cl)ccc3Nc3ccccc32)CC1 [clozapine] |  |  |  |  |  |  | 56%

Reference: patent publication US20080194631A1, “Medicament For the Treatment of Central Nervous System Disorders” (priority 2004, published 2008)
